Data set [1] has as its system MC3T3-E1 osteoblasts. Kind of data set: Alkaline phosphatase (ALP) activity assay in MC3T3-E1 osteoblasts. The class given is cell-based. Here is the method: MC3T3-E1 (passage 4-10) was maintained in Minimal Essential Media (MEM) supplemented with 10% FBS, 1 mM Sodium Pyruvate and 1% 100 ug/ml penicillin-streptomycin (100 U/ml). All reagents are from GIBCO Life Technologies.
MC3T3-E1 cells were seeded at 1×10^5 cells per well in 24-well plate. […] After treatment, cells were washed twice with PBS and lysed with buffer contains 50 mM Tris pH7.4 and 0.1% Triton X-100. After 3 freeze-thaw cycles, 40 ul of cell lysate was mixed with 50 ul of 2× Assay buffer (2-Amino-2methyl-1-propanol, pH 10.4 with 4 mM MgCl2) and 10 ul of 0.1M 4-Nitrophenyl phosphate. Incubated in 37° C. and recorded at OD410.

For data set [2], the system named is MC3T3-E1 osteoblasts. Briefly: Cell viability / cell number NBB assay. The class given is cell-based. As to the method: MC3T3-E1 cells were seeded at 7×10^3 cells/well in 96-well plates for 2 days. […] After treatment, cells were fixed with 3% formalin and stained with NBB solution (0.05% NBB with 0.1 M sodium acetate and 9% acetic acid) at room temperature. Twenty four hours later, staining solution was removed and distilled water was added to remove free dye. Then, 100 ul of 50 mM […] was added to dissolve bound dye and recorded absorbance at 590 nm.

Data set [3] deals with MC3T3-E1 osteoblast cells. Briefly: Osteoblast mineralization assay (Alizarin Red staining). The class given is cell-based. As to the method: MC3T3-E1 cells were seeded at 1×10^5 cells per well in 24-well plates. […] […] Cells were washed twice with PBS and fixed with 10% formalin for 1 hour. Fixed cell was washed twice with distilled water and stained with 2% Alizarin Red S solution (pH 4.1) in the dark for 1 hour. Stain solution was removed and washed 4 times with distilled water.

Another data set deals with MC3T3-E1 osteoblast. Briefly: mRNA expression of osteogenesis-related molecules by real-time PCR. The class given is cell-based. The settings on record: for AFT6 mRNA expression / ALP mRNA expression / ATF3 mRNA expression / Axin2 mRNA expression / BMP2 mRNA expression / BMP7 mRNA expression / BSP mRNA expression / COL1A1 mRNA expression / Fzd1 mRNA expression / Fzd2 mRNA expression / Fzd5 mRNA expression / LRP5 mRNA expression / OCN mRNA expression / OPN mRNA expression / OSN mRNA expression / OSX mRNA expression / Runx2 mRNA expression / VDR mRNA expression / Wnt3A mRNA expression / Wnt5A mRNA expression / Wnt7B mRNA expression / Wnt11 mRNA expression: BMP2 30 ng/ml, ASC 400 μM + β-GP 5 mM, F1 5 μM, F4 5 μM, relative to DMSO control, normalized to GAPDH. Here is the method: MC3T3-E1 cells were seeded in 6-well plates at 1×10^5 cells per well for 2 days. […] Total RNA was isolated at Day 2 and Day 4 with Trizol® reagent, 1 ug of total RNA was subjected to reverse transcription/cDNA synthesis using Superscript III first-strand synthesis system (Life Technologies).
Equal amount of cDNA generated from reverse transcription reactions were subjected to real-time PCR with SYBR® Green PCR Master Mix and primers for osteoblast differentiation markers. Primers used included: […]
Osteoblast differentiation markers genes expression were analyzed by ABI prism 7900HT Sequence Detection System and the relative level of transcript expression was quantified by ΔΔCt method.
(Real-time PCR tracks product formation cycle by cycle.)

The next data set deals with p38. Briefly: Western blot of phosphorylated p38 and total p38. The settings on record: MC3T3-E1 osteoblasts. The class given is cell-based. Here is the method:
MC3T3-E1 were lysed with 20 mM Tris pH8.0, 137 mM NaCl, 2 mM EDTA, 1% Triton X-100 and 10% Glycerol with protease inhibitor cocktail (Roche, complete). Protein concentration was determined by Bradford Protein Assay (Bio-Rad) and equal amount of proteins (30 μg) was resolved by SDS-PAGE and transferred onto PVDF membrane. The membrane was blocked with 3% BSA in Tris-buffered saline containing 0.1% Tween 20 and incubated with primary antibody (1:1000) overnight at 4° C. then incubated with HRP-linked secondary antibody for 1 h. Chemiluminescence signals were detected using enhanced chemiluminescence reagents (GE Healthcare) on X-Ray films (Fujifilm).
The levels of phosphorylated p38 and total p38 were determined by immunoblotting experiments.

Data set [4] concerns estrogen responsive gene elements (ERE). Briefly: pERE-Luc reporter gene assay in MC3T3-E1. The class given is cell-based. Particulars: 0.5-10 μM, MC3T3-E1. As to the method: MC3T3-E1 were seeded at 9.0×10^4 per well in 24-well plates. Twenty-four hours after cell seeding, cells were transiently transfected with 500 ng pERE-Luc (contains three repeats of estrogen-response element) by lipofectamine 2000 (Life Technologies) according to manufacturers' instruction (lipofectamine:DNA=3:1).
On the technique in general: In a reporter assay the amount or activity of a reporter protein is the signal.

The next data set relates to MCF7 cells. Briefly: BrdU incorporation proliferation assay. The class given is cell-based. Particulars: for MCF7 cell proliferation induced by estradiol: 5 μM. An excerpt:
The effect of F compounds on estrogen dependent cancer cells was investigated (FIG. 8). […] The fold increase of MCF7 proliferation was similar to that induced by estradiol treatment.
Background: Incorporation of labelled thymidine or its analogues reports DNA synthesis.

In another data set the test system is MDA-MB-231 cells. Briefly: BrdU incorporation proliferation assay. The class given is cell-based. Particulars: 5 μM.
In a further data set the target is Estrogen receptor beta (Homo sapiens, UniProt Q92731). Briefly: biochemical.
Estrogen receptor beta, sequence (Q92731 whole entry, species assumed): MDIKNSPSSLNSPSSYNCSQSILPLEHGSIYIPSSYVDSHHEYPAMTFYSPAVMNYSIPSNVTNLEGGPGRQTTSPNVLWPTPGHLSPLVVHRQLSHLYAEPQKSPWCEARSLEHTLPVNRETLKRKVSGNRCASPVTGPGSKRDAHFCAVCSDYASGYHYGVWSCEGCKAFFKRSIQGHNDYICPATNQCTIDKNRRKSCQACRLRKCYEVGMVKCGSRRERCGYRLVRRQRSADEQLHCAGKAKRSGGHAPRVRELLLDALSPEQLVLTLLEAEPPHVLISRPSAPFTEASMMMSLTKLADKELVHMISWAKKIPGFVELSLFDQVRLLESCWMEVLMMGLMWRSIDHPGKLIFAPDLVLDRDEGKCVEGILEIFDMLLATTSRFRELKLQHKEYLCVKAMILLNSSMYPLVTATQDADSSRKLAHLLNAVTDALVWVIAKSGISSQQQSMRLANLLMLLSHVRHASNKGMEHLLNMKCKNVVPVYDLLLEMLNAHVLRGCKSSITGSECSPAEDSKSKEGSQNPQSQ

We go through three compounds from patent publication US12383511B2, “Osteogenic agents and uses thereof” (GoldPorp Pharma Limited, priority 2022, dated 2025).

Turning to `C=Cc1cc(O)cc2c1-c1ccc(O)c(C)c1CC2` [F4, effusol], the “cellular alkaline phosphatase (ALP) enzyme activities” value in the data set with MC3T3-E1 osteoblasts [1] (0.5, 1.5, 5 μM) is recorded as “increased the cellular alkaline phosphatase (ALP) enzyme activities in a concentration-dependent manner”. In the data set on MC3T3-E1 osteoblasts [1] (at 24 and 48 h after treatment), the “concentration at which increases in ALP activities were already evident” value worked out at 0.5 µM and the “concentration of maximum increase in ALP activities” value turned out to be 5 µM. Besides, the “cell number (NBB assay)” value in the data set on MC3T3-E1 osteoblasts [2] (0.625 to 10 μM) is “slightly increased the cell number”. The “cell viability (NBB assay)” value in the data set with MC3T3-E1 osteoblasts [2] (higher concentrations (25-100 μM)) is “significant loss of cell viability”. Moreover, the “Alizarin Red staining (calcium deposition) in cell layers” value in [3] ([…] or 5 μM in osteoblast mineralization medium, day 14, compared with control) is “significantly enhanced”. Further, the “mRNA of Wnt pathway members Wnt3A and frizzled 1” value with MC3T3-E1 osteoblast was “increases”. Further, in the data set on MC3T3-E1 osteoblast (D 2), the “AFT6 mRNA expression” value was 1.5 fold, the “ALP mRNA expression” value was 2.1 fold, the “ATF3 mRNA expression” value is 0.7 fold and the “Axin2 mRNA expression” value came to 1.1 fold. For the same compound, in the data set on MC3T3-E1 osteoblast (D 2), the “BMP2 mRNA expression” value amounted to 1.0 fold, the “BMP7 mRNA expression” value was 1.0 fold, the “BSP mRNA expression” value is listed as 1.6 fold and the “COL1A1 mRNA expression” value is reported as 1.0 fold. Also, in the data set on MC3T3-E1 osteoblast (D 2), the “Fzd1 mRNA expression” value stood at 3.3 fold, the “Fzd2 mRNA expression” value was 0.8 fold, the “Fzd5 mRNA expression” value was 0.7 fold and the “LRP5 mRNA expression” value was found to be 0.9 fold. In the data set with MC3T3-E1 osteoblast (D 2), the “OCN mRNA expression” value came out at 17 fold, the “OPN mRNA expression” value was determined as 1.5 fold, the “OSN mRNA expression” value amounted to 0.9 fold and the “OSX mRNA expression” value was determined as 0.6 fold. In the data set with MC3T3-E1 osteoblast (D 2), the “Runx2 mRNA expression” value was 1.3 fold, the “VDR mRNA expression” value was 2.1 fold, the “Wnt3A mRNA expression” value was 0.9 fold and the “Wnt5A mRNA expression” value was 1.0 fold. In the data set with MC3T3-E1 osteoblast (D 2), the “Wnt7B mRNA expression” value was found to be 0.6 fold and the “Wnt11 mRNA expression” value came to 0.8 fold. In the data set with MC3T3-E1 osteoblast (D 4), the “AFT6 mRNA expression” value is given as 2.1 fold, the “ALP mRNA expression” value came out at 4.6 fold, the “ATF3 mRNA expression” value is listed as 0.9 fold and the “Axin2 mRNA expression” value came to 1.1 fold. In the data set with MC3T3-E1 osteoblast (D 4), the “BMP2 mRNA expression” value was determined as 0.9 fold, the “BMP7 mRNA expression” value amounted to 1.3 fold, the “BSP mRNA expression” value is given as 1.2 fold and the “COL1A1 mRNA expression” value is 1.2 fold. Moreover, in the data set on MC3T3-E1 osteoblast (D 4), the “Fzd1 mRNA expression” value is on record as 5.8 fold, the “Fzd2 mRNA expression” value stood at 0.8 fold, the “Fzd5 mRNA expression” value is 0.8 fold and the “LRP5 mRNA expression” value stood at 1.0 fold. Besides, in the data set on MC3T3-E1 osteoblast (D 4), the “OCN mRNA expression” value was found to be 9 fold, the “OPN mRNA expression” value was 2.7 fold, the “OSN mRNA expression” value is recorded as 2 fold and the “OSX mRNA expression” value worked out at 0.6 fold. Besides, in the data set on MC3T3-E1 osteoblast (D 4), the “Runx2 mRNA expression” value is listed as 1.7 fold, the “VDR mRNA expression” value came out at 1.6 fold, the “Wnt3A mRNA expression” value is 1.9 fold and the “Wnt5A mRNA expression” value was determined as 0.8 fold. In addition, in the data set on MC3T3-E1 osteoblast (D 4), the “Wnt7B mRNA expression” value is listed as 0.1 fold and the “Wnt11 mRNA expression” value is recorded as 0.4 fold. Besides, the “levels of osteocalcin (OCN) and osteoportin (OPN) mRNA” value with MC3T3-E1 osteoblast (treatment of cells with F1 or F4) was “markedly increased”. Besides, in the data set on p38 (5 μM, 15 min and 30 min), the “levels of phosphorylated p38” value is “increased levels of phosphorylated p38”. Further, the “transcriptional activity driven by estrogen responsive gene elements (ERE)” value in [4] was “stimulated the transcriptional activity driven by estrogen responsive gene elements (ERE) in a dose-dependent manner”. Further, in the data set on MCF7 cells, the “MCF7 cell proliferation induced by estradiol” value is reported as “significantly suppress”. In the data set on MCF7 cells (dose of 5 μM or higher), the MCF7 cell proliferation result is reported as “inhibited the proliferation”. The MCF7 cell proliferation result in the data set with MCF7 cells (low dose of 0.3 μM) is listed as “induced MCF7 cell proliferation”. Further, in the data set on MDA-MB-231 cells, the “cell proliferation induced by 17beta-estradiol in MDA-MB-231 cells (ER negative)” value is “had no effect”. Moreover, the IC50 on Estrogen receptor beta turned out to be 5.6 nM.

For `C=Cc1cc(O)cc2ccc3c(C)c(O)ccc3c12` [F5, dehydroeffusol], the “calcium deposition at higher vs lower concentration” value in data set [3] (5 μM compared with […]) is “More calcium deposition”. Besides, in the data set on MCF7 cells, the “MCF7 cell proliferation induced by estradiol” value is recorded as “significantly suppress”. Also, the MCF7 cell proliferation result in the data set with MCF7 cells (dose of 5 μM or higher) is “inhibited the proliferation”; with MCF7 cells (low dose of 0.3 μM), “induced MCF7 cell proliferation”. Also, the “cell proliferation induced by 17beta-estradiol in MDA-MB-231 cells (ER negative)” value in the data set with MDA-MB-231 cells is reported as “had no effect”.

`C[S+]([O-])c1ccc(-c2nc(-c3ccncc3)c(-c3ccc(F)cc3)[nH]2)cc1` (stereo not drawn) [SB203580, reference compound]: the “effect of MAP kinase inhibitor on F4-induced increases in ALP activity” value in the data set with MC3T3-E1 osteoblasts [1] (with 5 μM F4, 2 days) is given as “significantly inhibited”. The “levels of phosphorylated p38 in F4-treated cells on addition of inhibitor” value in the data set with p38 (with 5 μM F4, 15 and 30 min) is listed as “reduced the levels of phosphorylated p38”.

Broadly, the IC50 is the concentration that inhibits the measured activity by half. A high value points to a need for much substance.
